Tested on: IL-1β in plasma
Assay: IL-1β in plasma of adjuvant arthritis rats (ELISA)
Assay type: in vivo, rat
Settings: day 21 post-adjuvant
Method: TNF-α and IL-1β in plasma were measured in a double-point method using the TNF-α ELISA kit (Lbis® TNF-α-rat) and the IL-1β ELISA kit (Quantikine® Rat IL-1β/IL-1F2).
On day 21 post-adjuvant, the animals were subjected to autopsy, and plasma was prepared to measure IL-1β and TIN-α concentrations in plasma. In all the groups for which measurements were made, the concentration of TNF-α was below the detection limit (8 pg/mL).

## CN(Cc1cnc2nc(N)nc(N)c2n1)c1ccc(C(=O)N[C@@H](CCC(=O)O)C(=O)O)cc1 [Methotrexate]
0.15 mg/kg oral from day 10
  Concentrations of IL-1β in plasma: 22.6 ± 11.3 pg/mL
0.15 mg/kg oral, pre-administered group
  Concentrations of IL-1β in plasma: 18.4 ± 4.2 pg/mL

From patent US20130225508A1, “PEPTIDE CAPABLE OF BINDING TO IMMUNOGLOBULIN” (priority 2010, published 2013)
